Entries after “also recorded” stand apart in the source; their conditions may differ.
Each sequence was assayed on biotinylated human D-SDF-1 (assay: Competitive pull-down binding assay). Details: aptamer level; reference 192-A10-001.
Protocol: In order to compare different D-SDF-1 binding aptamers, a competitive ranking assay was performed. For this purpose the most affine aptamer available was radioactively labeled (see above) and served as reference. […] An excess of de- and renatured non-labeled D-RNA aptamer variants was added to different concentrations (e.g. 2, 10, and 50 nM) with the labeled reference aptamer to parallel binding reactions. The aptamers to be tested competed with the reference aptamer for target binding, thus decreasing the binding signal in dependence of their binding characteristics.

Row | Sequence | binding affinity in competitive pull-down binding assay vs. 192-A10-001
1 | GCAGUGAAAGUAACAUGUCAAUGAAAGGUAACCACAGC (aptamer; Made as D-RNA aptamer and L-RNA Spiegelmer, tested form not given here, further chemistry not given here) [192-D11] | Weaker binding affinity
2 | GCUAUGAAAGUAACAUGUCAAUGAAAGGUAACCAUAGC (aptamer; Made as D-RNA aptamer and L-RNA Spiegelmer, tested form not given here, further chemistry not given here) [192-H11] | Weaker binding affinity
3 | GCUGCGAAAGCGACAUGUCAAUGAAAGGUAGCCGCAGC (aptamer; Made as D-RNA aptamer and L-RNA Spiegelmer, tested form not given here, further chemistry not given here) [192-D10] | much weaker binding affinity
4 | GCUGUAAAAGUAACAAGUCAAUGAAAGGUAACUACAGC (aptamer; Made as D-RNA aptamer and L-RNA Spiegelmer, tested form not given here, further chemistry not given here) [192-E10] | Weaker binding affinity; also recorded: reduced binding affinity
5 | GCUGUAAAAGUAACAUGUCAAUGAAAGGUAACUACAGC (aptamer; Made as D-RNA aptamer and L-RNA Spiegelmer, tested form not given here, further chemistry not given here) [192-C9] | Weaker binding affinity
6 | GCUGUGAAAGCAACAUGUCAAUGAAAGGUAGCCACAGC (aptamer; Made as D-RNA aptamer and L-RNA Spiegelmer, tested form not given here, further chemistry not given here) [192-E9] | much weaker binding affinity
7 | GCUGUGAAAGUAACAAGUCAAUGAAAGGUAACCACAGC (aptamer; Made as D-RNA aptamer and L-RNA Spiegelmer, tested form not given here, further chemistry not given here) [192-C10] | equal binding affinities; also recorded: equal binding affinity
8 | GCUGUGAAAGUAACACGUCAAUGAAAGGUAACCACAGC (aptamer; Made as D-RNA aptamer and L-RNA Spiegelmer, tested form not given here, further chemistry not given here) [192-B11] | equal binding affinities; also recorded: equal binding affinity
9 | GCUGUGAAAGUAACACGUCAAUGAAAGGUAACCGCAGC (aptamer; Made as D-RNA aptamer and L-RNA Spiegelmer, tested form not given here, further chemistry not given here) [192-F10] | Weaker binding affinity; also recorded: reduced binding affinity
10 | GCUGUGAAAGUAACAUGUCAAUGAAAGGUAACCACAGC (aptamer; Made as D-RNA aptamer and L-RNA Spiegelmer, tested form not given here, further chemistry not given here) [192-G10] | Weaker binding affinity
11 | GCUGUGAAAGUAACAUGUCAAUGAAAGGUAACCACUGC (aptamer; Made as D-RNA aptamer and L-RNA Spiegelmer, tested form not given here, further chemistry not given here) [192-G11] | Weaker binding affinity
12 | GCUGUGAAAGUAACAUGUCAAUGAAAGGUAGCCGCAGC (aptamer; Made as D-RNA aptamer and L-RNA Spiegelmer, tested form not given here, further chemistry not given here) [192-H9] | much weaker binding affinity

Same assay, conditions: compared with 190-A3-001

Row | Sequence | binding affinity of derivatives of 190-A3-001
13 | GGGGUUAGGGCUUAAAGUCGGCUGAUUCU (Made as D-RNA aptamer and L-RNA Spiegelmer, tested form not given here, further chemistry not given here) [190-A3-007] | very strong reduction of binding affinity

Same assay, conditions: reference 191-D5-007

Row | Sequence | binding affinity in competitive pull-down binding assay vs. 191-D5-007
14 | GGCCGGGGUUAGGGCUAGAAGUCGGCCGGCC (chemistry not fully specified) [197-B2-006-31a] | the same as shown for 191-D5-007 and 197-B2-006
15 | GGCGGGUUAGGGCUAGAAGUCGGCGCC (chemistry not fully specified) [191-D5-024] | reduced binding affinity
16 | GGGCGGGUUAGGGCUAGAAGUCGGCGCCC (chemistry not fully specified) [191-D5-024-29b] | identical binding affinity to SDF-1 as 191-D5-007

Same assay, conditions: reference 193-G2-001

Row | Sequence | binding to human SDF-1 in comparison to 193-G2-001
17 | GCAUGGUGUGAUCUAGAUGUAGUGGCUGAUCCUAGUCAGGUGCCC (chemistry not fully specified) [193-A1-002] | reduced binding; also recorded: weaker binding affinities
18 | GCGAGGUGUGAUCUAGAUGUAGUGGCUGAUCCUAGUCAGGUGCGC (chemistry not fully specified) [193-G1-002] | reduced binding; also recorded: weaker binding affinities
19 | GCGUGGUGUGAUCUAGAUGUAAAGGCUGAUCCUAGUCAGGUACGC (chemistry not fully specified) [193-H3-002] | reduced binding
20 | GCGUGGUGUGAUCUAGAUGUAAUGGCUGAUCCUAGUCAGGGACGC (chemistry not fully specified) [193-D3-002] | reduced binding; also recorded: weaker binding affinities
21 | GCGUGGUGUGAUCUAGAUGUAGAGGCUGAUCCUAGUCAGGUACGC (chemistry not fully specified) [193-B3-002] | reduced binding
22 | GCGUGGUGUGAUCUAGAUGUAGUGGCUGAUCCUAGUCAGGUGCGC (chemistry not fully specified) [193-D2-002] | reduced binding; also recorded: weaker binding affinities
23 | GCGUGGUGUGAUCUAGAUGUAGUGGCUGAUCCUAGUUAGGUACGC (chemistry not fully specified) [193-D1-002] | reduced binding

Same assay, conditions: vs. 192-A10-001 and 192-A10-008

Row | Sequence | binding affinity of derivatives of 192-A10-001 in competitive pull-down binding assay
24 | GCCCAAAGCAACAUGUCAAUGAAAGGUAGCGGGC (aptamer; chemistry not given here) [192-A10-022] | weaker, much weaker or very much weaker binding affinity
25 | GCGCAAAGCAACAUGUCAAUGAAAGGUAGCGUGC (aptamer; chemistry not given here) [192-A10-017] | weaker, much weaker or very much weaker binding affinity
26 | GCGCGAAAGCAACAUGUCAAUGAAAGGUAGCCGCGC (aptamer; Made as D-RNA aptamer and L-RNA Spiegelmer, tested form not given here, further chemistry not given here) [192-A10-015] | reduced binding affinity; also recorded: weaker, much weaker or very much weaker binding affinity
27 | GCGGAAAGCAACAUGUCAAUGAAAGGUAGCCCGC (aptamer; chemistry not given here) [192-A10-014] | weaker, much weaker or very much weaker binding affinity
28 | GGCCAAAGCAACAUGUCAAUGAAAGGUAGCGGCC (aptamer; chemistry not given here) [192-A10-021] | weaker, much weaker or very much weaker binding affinity
29 | GGGCAAAGCAACAUGUCAAUGAAAGGUAGCGCCC (aptamer; chemistry not given here) [192-A10-020] | weaker, much weaker or very much weaker binding affinity
30 | GUGAAAGCAACAUGUCAAUGAAAGGUAGCCGC (chemistry not given here) [192-A10-004] | reduced binding affinity

Same assay, conditions: vs. 193-G2-001 and 193-G2-012

Row | Sequence | binding affinity of derivatives of 193-G2-001 and 193-C2-001 in competitive pull-down binding assay
31 | GCCCGUGUGAUCUAGAUGUAUUGGCUGAUCCUAGUCAGGGGGC (chemistry not fully specified) [193-G2-017] | reduced binding affinity
32 | GCGCGGUGUGAUCUAGAUGUAUUGGCUGAUCCUAGUCAGGCGCGC (chemistry not fully specified) [193-G2-013] | reduced binding affinity
33 | GCGCGUGUGAUCUAGAUGUAUUGGCUGAUCCUAGUCAGGGCGC (chemistry not fully specified) [193-G2-014] | reduced binding affinity
34 | GGCCGUGUGAUCUAGAUGUAUUGGCUGAUCCUAGUCAGGGGCC (chemistry not fully specified) [193-G2-016] | reduced binding affinity
35 | GGGCGUGUGAUCUAGAUGUAUUGGCUGAUCCUAGUCAGGGCCC (chemistry not fully specified) [193-G2-015] | reduced binding affinity
36 | GGUGUGAUCUAGAUGUAGUGGCUGAUCCUAGUCAGGU (Listed both as L-RNA Spiegelmer and D-RNA aptamer, further chemistry not given here) [193-C2-006] | reduced binding affinity

Same assay, conditions: vs. 197-B2 and 191-D5-007

Row | Sequence | binding affinity of truncated derivatives of 197-B2
37 | GCGGGGGUUAGGGCUAGAAGUCGGCCUGC (chemistry not fully specified) [197-B2-005] | without loss of binding affinity

From patent US9387221B2, “SDF-1 binding nucleic acids and the use thereof in cancer treatment” (NOXXON Pharma AG, priority 2010, dated 2016)
